Laboratory results: ChEMBL document CHEMBL1201862, “PubChem BioAssay data set” (2004)
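The compound was tested at five concentrations on cells cultured in 96-well plates, with a 48-hour exposure period. At the GI50, growth is halved.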 The source made the active and inactive calls. Rule as the data show it: active = GI50 up to about 1.1 µM and inactive = higher.

Experiments:
Test in all cases: NCI-60 cell line screen, 48 h
CCRF-CEM = system: CCRF-CEM
SW-620 = system: SW-620
OVCAR-5 = system: OVCAR-5
U-251 = system: U-251
M14 = system: M14
RXF 393 = system: RXF 393
A549 = system: A549
SF-539 = system: SF-539
Malme-3M = system: Malme-3M
SNB-75 = system: SNB-75
UACC-257 = system: UACC-257
NCI-H226 = system: NCI-H226
DU-145 = system: DU-145
NCI-H522 = system: NCI-H522
SK-OV-3 = system: SK-OV-3
KM12 = system: KM12
MDA-N = system: MDA-N
HOP-92 = system: HOP-92
PC-3 = system: PC-3
SK-MEL-28 = system: SK-MEL-28

Cc1ccc2c(O)cc(-c3ccc(Cl)s3)nc2n1
GI50 (CCRF-CEM): 0.471 µM (active) | GI50 (SW-620): 0.407 µM (active) | GI50 (OVCAR-5): 2.75 µM (inactive) | GI50 (U-251): 0.855 µM (active) | GI50 (M14): 0.516 µM (active) | GI50 (RXF 393): 2.76 µM (inactive) | GI50 (A549): 1.14 µM (inactive) | GI50 (SF-539): 0.538 µM (active) | GI50 (Malme-3M): 0.632 µM (active) | GI50 (SNB-75): 1.4 µM (inactive) | GI50 (UACC-257): 5.68 µM (inactive) | GI50 (NCI-H226): 0.916 µM (active) | GI50 (DU-145): 3.57 µM (inactive) | GI50 (NCI-H522): 0.502 µM (active) | GI50 (SK-OV-3): 1.83 µM (inactive) | GI50 (KM12): 0.488 µM (active) | GI50 (MDA-N): 0.136 µM (active) | GI50 (HOP-92): > 58.1 µM (inactive) | GI50 (PC-3): 1.57 µM (inactive) | GI50 (SK-MEL-28): 0.665 µM (active)

COC(=O)c1sc2ncc3c(c2c1N)CCCCCC3
GI50 (CCRF-CEM): > 100 µM (inactive) | GI50 (SW-620): > 100 µM (inactive) | GI50 (OVCAR-5): > 100 µM (inactive) | GI50 (U-251): > 100 µM (inactive) | GI50 (M14): > 100 µM (inactive) | GI50 (RXF 393): > 100 µM (inactive) | GI50 (A549): > 100 µM (inactive) | GI50 (SF-539): > 100 µM (inactive) | GI50 (Malme-3M): > 100 µM (inactive) | GI50 (SNB-75): 97.3 µM (inactive) | GI50 (UACC-257): > 100 µM (inactive) | GI50 (NCI-H226): > 100 µM (inactive) | GI50 (DU-145): > 100 µM (inactive) | GI50 (NCI-H522): > 100 µM (inactive) | GI50 (SK-OV-3): > 100 µM (inactive) | GI50 (KM12): > 100 µM (inactive) | GI50 (MDA-N): > 100 µM (inactive) | GI50 (HOP-92): > 100 µM (inactive) | GI50 (PC-3): > 100 µM (inactive) | GI50 (SK-MEL-28): > 100 µM (inactive)

O=C(O)/C=C\C(=O)Nc1ccc2c(c1)C(=O)c1cc(F)ccc1-2
GI50 (CCRF-CEM): > 100 µM (inactive) | GI50 (SW-620): > 100 µM (inactive) | GI50 (OVCAR-5): > 100 µM (inactive) | GI50 (U-251): 99.8 µM (inactive) | GI50 (M14): > 100 µM (inactive) | GI50 (RXF 393): > 100 µM (inactive) | GI50 (A549): > 100 µM (inactive) | GI50 (SF-539): > 100 µM (inactive) | GI50 (Malme-3M): > 100 µM (inactive) | GI50 (SNB-75): > 100 µM (inactive) | GI50 (UACC-257): > 100 µM (inactive) | GI50 (NCI-H226): > 100 µM (inactive) | GI50 (DU-145): > 100 µM (inactive) | GI50 (NCI-H522): 56.2 µM (inactive) | GI50 (SK-OV-3): > 100 µM (inactive) | GI50 (KM12): > 100 µM (inactive) | GI50 (MDA-N): > 100 µM (inactive) | GI50 (HOP-92): > 100 µM (inactive) | GI50 (PC-3): > 100 µM (inactive) | GI50 (SK-MEL-28): > 100 µM (inactive)

CC1=NN(C(=O)CC(=O)Nc2ccccc2C)C(=O)C1/N=N\c1ccc(S(=O)(=O)c2ccc(/N=N/C3C(=O)N(C(=O)CC(=O)Nc4ccccc4C)N=C3C)cc2)cc1 (stereo not given)
GI50 (CCRF-CEM): > 100 µM (inactive) | GI50 (SW-620): > 10 µM (inactive) | GI50 (OVCAR-5): > 100 µM (inactive) | GI50 (U-251): 67.9 µM (inactive) | GI50 (M14): > 100 µM (inactive) | GI50 (RXF 393): > 100 µM (inactive) | GI50 (A549): > 100 µM (inactive) | GI50 (SF-539): > 100 µM (inactive) | GI50 (Malme-3M): > 100 µM (inactive) | GI50 (SNB-75): > 100 µM (inactive) | GI50 (UACC-257): > 100 µM (inactive) | GI50 (NCI-H226): > 100 µM (inactive) | GI50 (DU-145): > 100 µM (inactive) | GI50 (NCI-H522): 46 µM (inactive) | GI50 (SK-OV-3): > 100 µM (inactive) | GI50 (KM12): > 100 µM (inactive) | GI50 (MDA-N): > 100 µM (inactive) | GI50 (HOP-92): > 100 µM (inactive) | GI50 (PC-3): > 100 µM (inactive) | GI50 (SK-MEL-28): > 100 µM (inactive)

CCOC(=O)c1sc2c(c1OC(=O)c1cccs1)c(=O)n(-c1ccccc1)c(=S)n2-c1ccccc1
GI50 (CCRF-CEM): 5.15 µM (inactive) | GI50 (SW-620): 19.3 µM (inactive) | GI50 (OVCAR-5): 22.6 µM (inactive) | GI50 (U-251): 12.2 µM (inactive) | GI50 (M14): 12.4 µM (inactive) | GI50 (RXF 393): 24.3 µM (inactive) | GI50 (A549): 12.3 µM (inactive) | GI50 (SF-539): 16.7 µM (inactive) | GI50 (Malme-3M): 12.9 µM (inactive) | GI50 (SNB-75): 83.6 µM (inactive) | GI50 (UACC-257): 27.4 µM (inactive) | GI50 (NCI-H226): 20.5 µM (inactive) | GI50 (DU-145): 20.5 µM (inactive) | GI50 (NCI-H522): 4.69 µM (inactive) | GI50 (SK-OV-3): 18.2 µM (inactive) | GI50 (KM12): 16.1 µM (inactive) | GI50 (MDA-N): 30.5 µM (inactive) | GI50 (HOP-92): 24.5 µM (inactive) | GI50 (PC-3): 12 µM (inactive) | GI50 (SK-MEL-28): 11.8 µM (inactive)

CN(C)Cc1cc(C(C)(C)C)ccc1-c1ccc(C(C)(C)C)cc1CN(C)C
GI50 (CCRF-CEM): 56.8 µM (inactive) | GI50 (SW-620): > 100 µM (inactive) | GI50 (OVCAR-5): > 100 µM (inactive) | GI50 (U-251): 77.8 µM (inactive) | GI50 (M14): 41.6 µM (inactive) | GI50 (RXF 393): > 100 µM (inactive) | GI50 (A549): > 100 µM (inactive) | GI50 (SF-539): > 100 µM (inactive) | GI50 (Malme-3M): 51.9 µM (inactive) | GI50 (SNB-75): 88.1 µM (inactive) | GI50 (UACC-257): 37.1 µM (inactive) | GI50 (NCI-H226): > 100 µM (inactive) | GI50 (DU-145): > 100 µM (inactive) | GI50 (NCI-H522): 57.8 µM (inactive) | GI50 (SK-OV-3): > 100 µM (inactive) | GI50 (KM12): > 100 µM (inactive) | GI50 (MDA-N): > 100 µM (inactive) | GI50 (HOP-92): > 100 µM (inactive) | GI50 (PC-3): 43.7 µM (inactive) | GI50 (SK-MEL-28): 41.1 µM (inactive)
